Assays:
Type in all cases: in vivo
Set-up in all cases: scale not given here
[1] = system: Echinochloa crus-galli (L.) Beauv. var. crusgalli; assay: Herbicidal effect by upland field soil treatment; conditions: active ingredient 1000 g/ha, examined at 21st day from treatment
From the text: (§1) An upland field soil was filled in a plastic pot of 80 cm^2. Seeds of Echinochloa crus-galli (L.) Beauv. var. crusgalli and Setaria viridis (L.) Beauv. were sowed, followed by covering with the same soil. […] Then, breeding was made in a greenhouse, and the herbicidal effect of each wettable powder was examined at the 21st day from the treatment in accordance with the standard shown in Table 21.

[2] = system: Setaria viridis (L.) Beauv.; assay: Herbicidal effect by upland field soil treatment; conditions: active ingredient 1000 g/ha, examined at 21st day from treatment
From the text: as §1

[3] = system: Echinochloa oryzicola Vasing; assay: Herbicidal effect by paddy field soil treatment; conditions: wettable powder, active ingredient 1000 g/ha, examined at the 21st day from the treatment
Method: (§2) A paddy field soil was filled in a plastic pot of 100 cm^2 and subjected to puddling. Then, seeds of Echinochloa oryzicola Vasing and Monochoria vaginalis (Murm. f.) Presl var. plantaginea (Roxb.) Solms-Laub. were sowed and water was filled in a depth of 3 cm. Next day, wettable powders produced in accordance with the Formulation 1 were diluted with water and dropped on the water surface. The application amount of each wettable powder was 1,000 g per 1 hectare in terms of the active ingredient. Then, breeding was made in a greenhouse, and the herbicidal effect of each wettable powder was examined at the 21st day from the treatment in accordance with the standard shown in Table 21.

[4] = system: Monochoria vaginalis (Murm. f.) Presl var. plantaginea (Roxb.) Solms-Laub.; assay: Herbicidal effect by paddy field soil treatment; conditions: wettable powder, active ingredient 1000 g/ha, examined at the 21st day from the treatment
Method: as §2

SMILES	herbicidal effect (index per standard of Table 21), Echinochloa curs-galli (L.) Beauv. Var. crus-galli [1]	herbicidal effect (index per standard of Table 21), Setaria viridis (L.) Beauv. [2]	Herbicidal effect index, Echinochloa oryzicola Vasing [3]	Herbicidal effect index, Monochoria vaginalis (Burm. F.) Presl var. plantaginea (Roxb.) Solms-Laub. [4]
Cc1sc(C)c(CS(=O)(=O)C2=NOC(C)(C)C2)c1C [2-0007]	4	4	–	–
CC1(C)CC(S(=O)(=O)Cc2c(Cl)nn(C3CCCC3)c2C(F)(F)F)=NO1 [3-0090]	–	–	5	5
CCOc1ncnc(C(F)(F)F)c1CS(=O)(=O)C1=NOC(C)(C)C1 [8-0004]	5	5	–	–
CC1(C)CC(S(=O)(=O)Cc2nn(C(F)F)c3c2CCCC3)=NO1 [6-0001]	5	5	–	–
CC1(C)CC(S(=O)(=O)Cc2ccco2)=NO1 [1-0006]	5	4	–	–
Cn1nc(C(F)(F)F)c(CS(=O)(=O)C2=NOC(C)(C)C2)c1OCC1CC1 [3-0050]	5	5	–	–
CC1(C)CC(S(=O)(=O)Cc2c(C(F)(F)F)nn(CC3CCCC3)c2Cl)=NO1 [3-0100]	–	–	5	5
CC(=O)n1nc(C(F)(F)F)c(CS(=O)(=O)C2=NOC(C)(C)C2)c1Cl [3-0177]	–	–	5	5
Cc1onc(C(F)(F)F)c1CS(=O)(=O)C1=NOC(C)(C)C1 [4-0001, 5,5-dimethyl-3-(5-methyl-3-trifluoromethylisoxazol-4-ylmehtylsulfonyl)-2-isoxazoline]	–	–	5	5
COc1ncnc(OC)c1CS(=O)(=O)C1=NOC(C)(C)C1 [8-0005]	5	4	–	–
CC1(C)CC(S(=O)(=O)Cc2ccncc2)=NO1 [9-0003]	–	–	5	5
CC(=O)Cn1nc(C(F)(F)F)c(CS(=O)(=O)C2=NOC(C)(C)C2)c1Cl [3-0142]	5	5	–	–
CCCCOc1c(CS(=O)(=O)C2=NOC(C)(C)C2)c(C(F)(F)F)nn1C [3-0048]	5	5	–	–
COc1nn(C)c(C(F)(F)F)c1CS(=O)(=O)C1=NOC(C)(C)C1 [3-0043]	5	5	–	–
CC1(C)CC(S(=O)(=O)Cc2sc3ccccc3c2Br)=NO1 [10-0011]	–	–	5	5
CC1(C)CC(S(=O)(=O)Cc2c(C(F)(F)F)nn(C3CCCC3)c2Cl)=NO1 [3-0089]	–	–	5	5
CC1(C)CC(S(=O)(=O)Cc2c(Cl)nn(CC3CCCC3)c2C(F)(F)F)=NO1 [3-0101]	–	–	5	5

SMILES	herbicidal effect (index per standard of Table 21), Echinochloa curs-galli (L.) Beauv. Var. crus-galli [1]	herbicidal effect (index per standard of Table 21), Setaria viridis (L.) Beauv. [2]	Herbicidal effect index, Echinochloa oryzicola Vasing [3]	Herbicidal effect index, Monochoria vaginalis (Burm. F.) Presl var. plantaginea (Roxb.) Solms-Laub. [4]
Cn1nc(C(F)(F)F)c(CS(=O)(=O)C2=NOC(C)(C)C2)c1OCC(F)F [3-0056]	5	5	–	–
CC1(C)CC(S(=O)(=O)Cc2c(C(F)(F)F)nn(C(=O)c3ccccc3)c2Cl)=NO1 [3-0178]	–	–	5	5
CC1(C)CC(S(=O)(=O)Cc2c(C(F)(F)F)nn(S(=O)(=O)c3ccccc3)c2Cl)=NO1 [3-0176]	–	–	5	5
CC1(C)CC(S(=O)(=O)Cc2c(C(F)(F)F)nn(CC(N)=O)c2Cl)=NO1 [3-0138]	4	5	–	–
C#CCOc1c(CS(=O)(=O)C2=NOC(C)(C)C2)c(C(F)(F)F)nn1C [3-0053]	5	5	–	–
CC1(C)CC(S(=O)(=O)Cc2c[n+]([O-])ccc2C(F)(F)F)=NO1 [7-0002, 5,5-dimethyl-3-(4-trifluoromethyl-pyridine-N-oxide-3-ylmethylsulfonyl)-2-isoxazoline]	5	5	–	–
CCOc1onc(C(F)(F)F)c1CS(=O)(=O)C1=NOC(C)(C)C1 [4-0006]	5	5	–	–
CC(C)C(SC1=NOC(C)(C)C1)c1cncnc1C(F)(F)F (racemic) [8-0012]	–	–	5	5
CC1(C)CC(S(=O)(=O)Cc2c(C(F)(F)F)nn(-c3ccccc3)c2OC(F)F)=NO1 [3-0160]	–	–	5	5
COc1c(CS(=O)(=O)C2=NOC(C)(C)C2)c(-c2ccccc2)cc[n+]1[O-] [7-0007]	5	4	–	–
Cn1nc(C(F)(F)F)c(CS(=O)(=O)C2=NOC(C)(C)C2)c1Oc1ccc(Cl)cc1 [3-0063]	5	5	–	–
Cn1nc(C(F)F)c(CSC2=NOC(C)(C)C2)c1Cl [3-0020, 3-(5-chloro-3-difluoromethyl-1-methyl-1H-pyrazol-4-ylmethylthio)-5,5-dimethyl-2-isoxazoline]	5	5	–	–
CC1(C)CC(S(=O)(=O)Cc2c(C(F)(F)F)nn(CC3CCCCC3)c2Cl)=NO1 [3-0102]	–	–	5	5
CC(=O)Cn1nc(Cl)c(CS(=O)(=O)C2=NOC(C)(C)C2)c1C(F)(F)F [3-0143]	5	5	–	–
CCOC(=O)Cn1nc(C(F)(F)F)c(CS(=O)(=O)C2=NOC(C)(C)C2)c1Cl [3-0136]	5	5	–	–
COc1nc(OC)c(CS(=O)(=O)C2=NOC(C)(C)C2)c(C(F)(F)F)n1 [8-0007]	5	5	–	–
CC1(C)CC(S(=O)(=O)Cc2nc(Cc3ccccc3)no2)=NO1 [9-0007]	4	4	–	–
